Assay results as given in US20050037436A1, “Test systems and the use thereof for identifying and characterizing compounds” (priority 2000, published 2005).

Assays:
[1] = Ca2+ imaging, arecoline stimulation of untransfected HEK-293 cells; assay type: cell-based, human; conditions: 1 mM arecoline; absence of BAY44-4400
[2] = test system: endogenous, natural muscarinic acetylcholine receptors; assay: Ca2+ imaging, carbachol stimulation of untransfected HEK-293 cells; assay type: cell-based, human; conditions: 1 mM carbachol; absence of BAY44-4400
[3] = target: T1, mouse β2-adrenergic receptor (Mus musculus, UniProt P18762); assay: Ca2+ imaging of HEK-293 cells transfected with β2-R-GFP (control); assay type: cell-based; conditions: immediately after addition
T1 construct: was fused with a C-terminal EGFP tag by amplifying the full-length cDNA with the P117 mouse 2AR XhoI 5′ primer; expressed in transfected cells; host or cells: HEK-293, transient (pEGFP-N3)
Experimental: (§1) The intracellular free Ca^2+ concentration [Ca^2+]i was measured in COS-7 and HEK293 cells transiently transfected with the HC110-R-EGFP or β2-AR-EGFP construct using the calcium imaging method (see also FIG. 11). In each case 2×10^5 COS-7 and HEK293 cells were applied to a 42 mm cover glass coated with 1% gelatine in 55 mm tissue culture dishes with 5 ml of DMEM medium (with 10% FCS and pen/strep). The transfection took place with the aid of the non-liposomal transfection reagent FuGENE 6 (Roche Molecular Biochemicals, Mannheim). […] Constructs of the HC110-R full-length clone with a GFP tag fused in the correct reading frame, and the complete cDNA of the β2-adrenergic receptor which had likewise been provided with a GFP tag at the 3′ end, were transfected.
(§2) After the incubation, the cells loaded with Fura-2/AM were examined under an inverted microscope (Zeiss, Axiovert, Germany) and, in parallel with this, in a digital imaging fluorescence microscope (PTI) and differentiated into transfected and untransfected cells at a wavelength of 440 and 490 nm respectively. On average, 5-7 transfected and non transfected cells were selected by fixing an ROI (region of interest). The extinction was measured at 340 nm (calcium-bound Fura-2/AM) and 380 nm (free Fura-2/AM), and the emission was measured at 510 nm. Evaluation took place using the Image Master 1.x software by forming the quotient of 340:510 nm, 380:510 nm and the ratio of 340/380:510 nm (background corrected images) as a function of the agent added.
Agents were always added 6 min after starting the measurement by removing an appropriate volume of Na^+ HBS buffer and pipetting the agent directly into the sample vessel for a further 30 to 50 min. The total volume in the sample vessel was constant at 1.5 ml throughout the experiment. […] Addition of CdCl2 and nifedipine took place immediately at the start of the experiment and before addition of α-LTX, and EGTA was added both at the start of the experiment and 4 min after the addition of α-LTX. […]
The data were analyzed using the Excel 98 table calculation programme. […]

HC110-R = assay type: cell-based, Haemonchus contortus; conditions: 15 μM nifedipine
Experimental: as §1, §2
Agents were always added 6 min after starting the measurement by removing an appropriate volume of Na^+ HBS buffer and pipetting the agent directly into the sample vessel for a further 30 to 50 min. The total volume in the sample vessel was constant at 1.5 ml throughout the experiment. […] Addition of CdCl2 and nifedipine took place immediately at the start of the experiment and before addition of α-LTX, and EGTA was added both at the start of the experiment and 4 min after the addition of α-LTX. Dissolved α-LTX was present in a concentration of 300 nM in 50 mM tris-HCl, pH 8.0; BAY 44-4400 was initially dissolved in pure DMSO (stock solutions between 0.004 and 10 μg/ml). The stock solutions were adjusted to the required concentration in the Na^+ HBS buffer. The maximum amount of the active substance BAY 44-4400 which could be dissolved at a final concentration of 0.1% DMSO was found by setting up serial dilutions in Na^+ HBS.
The data were analyzed using the Excel 98 table calculation programme. The results are derived from at least 2-4 reproduced experiments on in each case 4-8 transfected and un-transfected cells.

T1 sequence (P18762 whole entry, the tested form may be a part): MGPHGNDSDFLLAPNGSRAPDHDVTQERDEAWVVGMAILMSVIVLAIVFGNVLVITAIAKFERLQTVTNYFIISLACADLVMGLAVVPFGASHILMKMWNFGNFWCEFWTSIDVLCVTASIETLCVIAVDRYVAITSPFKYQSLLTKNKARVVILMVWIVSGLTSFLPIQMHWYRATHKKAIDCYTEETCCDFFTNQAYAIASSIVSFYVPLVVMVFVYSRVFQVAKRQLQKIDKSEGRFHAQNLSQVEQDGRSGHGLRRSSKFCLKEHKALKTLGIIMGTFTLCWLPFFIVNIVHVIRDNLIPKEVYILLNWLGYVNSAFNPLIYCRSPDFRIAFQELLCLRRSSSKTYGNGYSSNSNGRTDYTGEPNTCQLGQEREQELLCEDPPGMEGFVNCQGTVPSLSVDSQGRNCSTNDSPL

Structure (SMILES): COC(=O)C1=CCCN(C)C1 [arecoline]
- arecoline-induced increase in Ca2+ [1]: 27 ± 3.5 nM

Structure (SMILES): C[N+](C)(C)CCOC(N)=O.[Cl-] [carbachol, carbamylcholine chloride]
- carbachol-induced increase in [Ca2+]i [2]: 53+6.8 nM

Structure (SMILES): CC(C)NCC(O)c1ccc(O)c(O)c1 (stereo not shown) [isoproterenol]
- Ca2+ response to isoproterenol [3]: significant Ca^2+ response

Structure (SMILES): COC(=O)C1=C(C)NC(C)=C(C(=O)OC)C1c1ccccc1[N+](=O)[O-] [nifedipine]
- second α-LTX-induced increase in [Ca2+]i (HC110-R): 30 ± 5.4 nM
